Source: US12534425B2, “Phenalkylamines and methods of treating mood disorders” (GILGAMESH PHARMACEUTICALS, INC., priority 2020, dated 2026)

Columns and labels:
5-HT1A receptor = 5-HT1A receptor (Homo sapiens (Human), UniProt P08908); assay: FLIPR Ca2+ flux agonist assay at 5-HT1A; format: cell-based
Experimental: (§1) The functional activity of Compound 1 at several serotonin (5-HT) receptor subtypes (5-HT2A, 5-HT2B, and 5-HT1A) was determined in Ca^2+ flux assays, with the results summarized in Table 3.
(§2) Functional Assays at 5-HT2A, 5-HT2B, and 5-HT1A Receptors. Agonist activity at 5-HT2A, 5-HT2B, and 5-HT1A receptors was determined using a FLIPR Ca^2+ flux assay at WuXi AppTec (Hong Kong) Limited according to their standard protocols. Briefly, stably transfected cells expressing the receptor of interest (HEK293 for 5-HT2A and 5-HT2B; CHO cells for 5-HT1A) were grown and plated in a 384 well plate and incubated at 37° C. and 5% CO2 overnight. A solution of 250 mM probenecid in 1 mL FLIPR assay buffer was prepared fresh. This was combined with a fluorescent dye (Fluo-4 Direct™) to make a final assay concentration of 2.5 mM. Compounds were diluted 1:3.16 for 10 points and 750 nL was added to a 384 well compound plate using ECHO along with 30 μL assay buffer. The fluorescent dye was then added to the assay plate along with assay buffer to a final volume of 40 μL. The cell plate was incubated for 50 min at 37° C. and 5% CO2 and placed into the FLIPR Tetra along with the compound plate. 10 μL of references and compounds were then transferred from the compound plate into the cell plate and the fluorescent signal was read.

5-HT2B receptor = 5-HT2B receptor (Homo sapiens (Human), UniProt P41595); assay: FLIPR Ca2+ flux agonist assay at 5-HT2B; format: cell-based
Experimental: as §1, §2

5-HT2A receptor [1] = molecular target: T1, 5-HT2A receptor (Homo sapiens (Human), UniProt P28223); assay: FLIPR Ca2+ flux agonist assay at 5-HT2A; format: cell-based
Experimental: as §1, §2

[2] = Metabolic stability in cynomolgus monkey liver microsomes (CLM); settings: male, pooled liver microsomes, pH 7.4
5-HT2A receptor [3] = molecular target: T1, 5-HT2A receptor; assay: 5-HT2A receptor radioligand binding ([3H]ketanserin); settings: for Ki: 1 nM [3H]ketanserin, HEK293 stable cell line
Experimental: Methods. Affinity of the test compounds for the 5-HT2A receptor was determined in radioligand binding experiments with [^3H]ketanserin by WuXi AppTec (Hong Kong) Limited, using methods adapted from the literature and under conditions described in Table 2.

C57BL/6 mice = assay: Head twitch response (HTR) in mice; format: in vivo; settings: for Average HTR (SEM): counted for 20 min; for ED50: Mus musculus, sc, Gaussian dose-response fit, read-out: HTR ED50 (95% CI); for maximal HTR effect: s.c., maximal effect over doses
Experimental: Animals. Adult male C57BL/6 mice, aged 8 weeks (body weight 20-25 g) were used in these experiments. Animals were housed under controlled temperatures and 12-hour light/dark cycles (lights on between 07:00-19:00 h), with ad libitum food and water. All efforts were made to minimize suffering.
Drugs and Drug Administration. Compound 1 was synthesized as described above. […] All compounds were used as the HCl salts, dissolved in a vehicle consisting of normal saline, and administered subcutaneously (s.c.) in a volume of 10 mL/kg. […] Group size was N=6 animals/group.
Procedure. Mice were administered one dose of a test drug (or vehicle) s.c. and immediately placed into a small open field for behavioral observation.
Statistical Analysis. The data points shown in Table 4 are the mean±standard error of the mean (SEM). Dose-response curves were fit and ED50s calculated using the Gaussian 2020 function in GraphPad Prism 9.

[4] = Ca2+ flux, HEK293 cells, max dose

Sequence of 5-HT2B receptor (P41595 whole entry): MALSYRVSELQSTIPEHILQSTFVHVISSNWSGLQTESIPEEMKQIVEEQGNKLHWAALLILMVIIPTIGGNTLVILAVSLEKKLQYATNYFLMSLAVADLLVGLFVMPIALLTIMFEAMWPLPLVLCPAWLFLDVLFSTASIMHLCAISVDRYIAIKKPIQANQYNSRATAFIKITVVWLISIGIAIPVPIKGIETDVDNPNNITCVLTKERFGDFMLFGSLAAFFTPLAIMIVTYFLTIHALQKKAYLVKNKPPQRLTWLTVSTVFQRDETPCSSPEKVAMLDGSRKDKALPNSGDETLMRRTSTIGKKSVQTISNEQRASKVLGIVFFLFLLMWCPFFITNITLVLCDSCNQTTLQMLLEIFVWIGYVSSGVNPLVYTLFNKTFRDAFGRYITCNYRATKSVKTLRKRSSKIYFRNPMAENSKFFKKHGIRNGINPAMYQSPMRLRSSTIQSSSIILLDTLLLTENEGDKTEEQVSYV

## C=CCc1cc(OC)c(CCN)cc1OC [Compound 1, 2-(4-allyl-2,5-dimethoxyphenyl)ethan-1-amine]
5-HT1A receptor
  EC50: > 100000 nM
5-HT1A receptor; Ca2+ flux, CHO cells, max dose
  5-HT1A % Act @ Max Dose: 13.25%
5-HT2B receptor
  EC50: 77.7 nM
5-HT2B receptor; [4]
  5-HT2B % Act @ Max Dose: 74.87%
5-HT2A receptor [1]
  EC50: 2.15 nM
5-HT2A receptor [1]; 5-HT2A over 5-HT2B and 5-HT1A, Ca2+ flux
  selectivity among 5-HT receptors (in words): selective for the 5-HT2A receptor over the 5-HT2B and 5-HT1A receptors
5-HT2A receptor [1]; Ca2+ flux
  agonist activity at the 5-HT2A receptor (in words): potent and highly efficacious agonist
5-HT2A receptor [1]; [4]
  5-HT2A % Act @ Max Dose: 110.99%
[2]
  half-life at 1 μM: 0.705 h
  microsomal CLint at 1 μM: 32.8 µL/min/mg
5-HT2A receptor [3]
  Ki: 90.4 nM
5-HT2A receptor [3]; compared to closely related compounds
  binding affinity at the 5-HT2A receptor (in words): reduced binding affinity
C57BL/6 mice; 0.1 mg/kg s.c.
  Average HTR (SEM): 8.8 (0.79)
C57BL/6 mice; 0.316 mg/kg s.c.
  Average HTR (SEM): 13.3 (0.49)
C57BL/6 mice; 1 mg/kg s.c.
  Average HTR (SEM): 23.0 (1.21)
C57BL/6 mice; 3.16 mg/kg s.c.
  Average HTR (SEM): 28.8 (1.58)
C57BL/6 mice; 10 mg/kg s.c.
  Average HTR (SEM): 24.3 (2.04)
C57BL/6 mice
  ED50: 0.28 mg/kg
  maximal HTR effect: 28.8 head twitches/20 min

## COc1cc(CCN)c(OC)cc1Br [Compound 2C-B]
[2]
  half-life at 1 μM: 1.25 h
  microsomal CLint at 1 μM: 18.4 µL/min/mg

## CCc1cc(OC)c(CCN)cc1OC [Compound 2C-E]
[2]
  half-life at 1 μM: 1.31 h
  microsomal CLint at 1 μM: 17.6 µL/min/mg
5-HT2A receptor [3]
  Ki: 16.7 nM

## COc1cc(C(F)(F)F)c(OC)cc1CCN [Compound 2C-TFM, 2,5-dimethoxy-4-(trifluoromethyl)phenethylamine]
5-HT2A receptor [3]
  Ki: 15.8 nM
C57BL/6 mice; 0.316 mg/kg s.c.
  Average HTR (SEM): 6.5 (0.89)
C57BL/6 mice; 1 mg/kg s.c.
  Average HTR (SEM): 19.2 (2.47)
C57BL/6 mice; 3.16 mg/kg s.c.
  Average HTR (SEM): 19.2 (2.37)
C57BL/6 mice; 10 mg/kg s.c.
  Average HTR (SEM): 17.2 (1.62)
C57BL/6 mice; 31.6 mg/kg s.c.
  Average HTR (SEM): 9.3 (1.12)
C57BL/6 mice
  ED50: 0.43 mg/kg
  maximal HTR effect: 19.2 head twitches/20 min

## COc1cc(CC(C)N)c(OC)cc1I (stereo not drawn) [DOI, 4-iodo-2,5-dimethoxyamphetamine]
C57BL/6 mice; 0.1 mg/kg s.c.
  Average HTR (SEM): 5.5 (0.85)
C57BL/6 mice; 0.316 mg/kg s.c.
  Average HTR (SEM): 13.0 (2.07)
C57BL/6 mice; 1 mg/kg s.c.
  Average HTR (SEM): 29.3 (2.29)
C57BL/6 mice; 3.16 mg/kg s.c.
  Average HTR (SEM): 35.6 (3.37)
C57BL/6 mice; 10 mg/kg s.c.
  Average HTR (SEM): 22.7 (1.52)
C57BL/6 mice
  ED50: 0.43 mg/kg
  maximal HTR effect: 35.6 head twitches/20 min
